The source made the active and inactive calls.
Columns and labels:
[1] = target: ATP-dependent molecular chaperone HSP82 (Candida albicans (strain WO-1) (Yeast), UniProt C4YTQ8); test: steroid-induced GRE reporter decrease in yeast – S. cerevisiae, luminescence, Hsp90 inhibitor project, dose response (AID 2400); format: functional, cell-based;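 note: beta-galactosidase luminescence from glucocorticoid response element reporter as proxy for Hsp90 function; inhibitor potency where signal loss means Hsp90 inhibition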
[2] = fluconazole-exposed Candida albicans growth modulators – fluorescence, retest, confirmation (AID 2467); format: functional, cell-based
[3] = target: T1, Serine/threonine-protein phosphatase (Candida dubliniensis (strain CD36 / CBS 7987 / NCPF 3949 / NRRLY-17841) (Yeast), UniProt B9W6M3); test: blockers of CaCl2-induced CDRE-lacZ signaling – S. cerevisiae, luminescence, secondary, dose response (AID 2388); format: functional, cell-based;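 note: yeast reporter cells carrying a calcineurin-responsive lacZ construct stimulated with calcium chloride; luminescent beta-galactosidase reporter signal in whole cells rather than isolated phosphatase activity; potency for inhibition where a drop in reporter signal means calcineurin blockade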
T1 sequence (B9W6M3 whole entry): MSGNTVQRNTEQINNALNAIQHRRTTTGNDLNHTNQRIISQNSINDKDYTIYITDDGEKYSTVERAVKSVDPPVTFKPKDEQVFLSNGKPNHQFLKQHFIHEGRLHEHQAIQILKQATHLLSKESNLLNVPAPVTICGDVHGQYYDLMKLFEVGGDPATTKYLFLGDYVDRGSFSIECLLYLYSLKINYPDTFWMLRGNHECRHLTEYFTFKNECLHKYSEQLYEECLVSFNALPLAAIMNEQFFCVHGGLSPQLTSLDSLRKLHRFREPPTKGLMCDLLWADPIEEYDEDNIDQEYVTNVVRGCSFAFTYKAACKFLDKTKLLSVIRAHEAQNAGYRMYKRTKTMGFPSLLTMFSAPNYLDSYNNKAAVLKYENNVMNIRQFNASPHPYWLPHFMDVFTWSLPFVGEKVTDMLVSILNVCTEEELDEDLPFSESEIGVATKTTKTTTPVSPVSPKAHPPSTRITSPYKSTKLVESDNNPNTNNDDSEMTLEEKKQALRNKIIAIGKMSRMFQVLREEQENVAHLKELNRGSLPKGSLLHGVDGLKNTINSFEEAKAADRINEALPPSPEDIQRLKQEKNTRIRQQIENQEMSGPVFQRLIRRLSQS

[4] = NIH-3T3 fibroblast cytotoxicity, dose response, cytotoxicity control, cell-based, fluorescence, Alamar Blue, secondary assay (AID 2327); format: functional;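 note: NIH-3T3 mouse fibroblasts cultured with fluconazole at 8 µg/mL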
[5] = target: Peroxisome proliferator-activated receptor gamma/Nuclear receptor coactivator 1 (Homo sapiens, UniProt P37231); test: (§1) TR-FRET dose response biochemical High Throughput Screening assay for agonists of the steroid receptor coactivator 1 (SRC-1) recruitment by the peroxisome proliferator-activated receptor gamma (PPAR gamma): non-selective agonists. [Related pubchem assays (depositor defined):AID1300, AID1808, AID504735, AID631]; format: protein assay
[6] = target: Peroxisome proliferator-activated receptor gamma/Nuclear receptor coactivator 3 (Homo sapiens, UniProt P37231); test: as §1, with “3 (SRC-3)” for “1 (SRC-1)”, “assays: 1301 (Confirmation screen.), 1048 (Primary screen.)]” for “assays (depositor defined):AID1300, AID1808, AID504735, AID631]”; format: functional
[7] = target: Peroxisome proliferator-activated receptor gamma/Nuclear receptor coactivator 2 (Homo sapiens, UniProt P37231); test: TR-FRET dose response biochemical High Throughput Screening assay for agonists of the steroid receptor coactivator 2 (SRC-2) recruitment by the peroxisome proliferator-activated receptor gamma (PPAR gamma): non-selective agonists. [Related pubchem assays: 1297, 1032 ]; format: functional
[8] = target: T2, Heat shock factor protein 1 (Mus musculus, UniProt P38532); test: decrease of HSF1-responsive luciferase luminescence – cell-based, NIH3T3, dose retest, confirmation (AID 2382); format: functional;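 note: NIH3T3 fibroblasts with HSF1-driven luciferase reporter stressed by proteasome inhibitor MG132; luminescence from HSF1-driven luciferase expression after 8 hours of MG132 stress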
T2 sequence (P38532 whole entry): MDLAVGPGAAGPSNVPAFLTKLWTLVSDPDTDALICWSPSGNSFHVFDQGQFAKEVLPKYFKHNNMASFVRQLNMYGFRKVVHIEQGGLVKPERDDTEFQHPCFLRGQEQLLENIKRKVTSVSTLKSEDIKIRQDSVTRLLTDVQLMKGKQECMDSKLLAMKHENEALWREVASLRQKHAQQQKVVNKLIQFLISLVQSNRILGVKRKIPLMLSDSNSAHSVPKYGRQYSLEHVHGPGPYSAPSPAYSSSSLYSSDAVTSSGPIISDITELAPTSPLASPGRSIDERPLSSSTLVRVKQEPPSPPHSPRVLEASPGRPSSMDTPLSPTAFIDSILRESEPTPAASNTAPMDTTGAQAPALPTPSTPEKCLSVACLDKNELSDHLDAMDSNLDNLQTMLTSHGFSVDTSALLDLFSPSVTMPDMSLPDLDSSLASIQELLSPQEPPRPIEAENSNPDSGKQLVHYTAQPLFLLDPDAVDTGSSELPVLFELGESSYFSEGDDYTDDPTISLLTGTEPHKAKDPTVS

Bcl-2-related protein A1 = target: T3, Bcl-2-related protein A1 (Mus musculus, UniProt Q07440); format: functional;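 note: confirmatory dose–response counterscreen on Bfl-1, used to check hits from a UBC13 polyubiquitin inhibitor campaign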
T3 sequence (Q07440 whole entry): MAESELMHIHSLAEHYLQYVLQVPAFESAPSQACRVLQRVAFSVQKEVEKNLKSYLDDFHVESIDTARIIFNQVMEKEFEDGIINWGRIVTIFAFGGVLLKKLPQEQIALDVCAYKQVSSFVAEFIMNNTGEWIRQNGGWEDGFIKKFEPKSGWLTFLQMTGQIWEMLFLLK

[9] = target: T4, Ubiquitin-conjugating enzyme E2 N (Homo sapiens, UniProt P61088); format: functional
T4 sequence (P61088 whole entry): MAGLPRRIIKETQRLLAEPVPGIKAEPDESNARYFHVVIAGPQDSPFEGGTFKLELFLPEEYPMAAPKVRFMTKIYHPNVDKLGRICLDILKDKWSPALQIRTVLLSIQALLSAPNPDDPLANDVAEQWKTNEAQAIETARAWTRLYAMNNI

[10] = target: T4, Ubiquitin-conjugating enzyme E2 N; format: functional; remark: listed apart in the source
INS1 = test: INS-1E survival protection against cytokine death – cell-based, luminescence, retest, dose response (AID 449756); format: functional; details: Rattus norvegicus;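 note: cell death triggered by IL-1 beta plus TNF-alpha plus IFN-gamma mixture; protective hits raise ATP signal compared with cytokine alone wells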
[11] = target: T5, Short transient receptor potential channel 4 (Mus musculus, UniProt Q9QUQ5); test: calcium entry via TRPC4 opening agents – cell-based, HEK293 TRPC4/mu-opioid, Fluo-4 calcium, dose response (AID 434937); format: functional
T5 sequence (Q9QUQ5 whole entry): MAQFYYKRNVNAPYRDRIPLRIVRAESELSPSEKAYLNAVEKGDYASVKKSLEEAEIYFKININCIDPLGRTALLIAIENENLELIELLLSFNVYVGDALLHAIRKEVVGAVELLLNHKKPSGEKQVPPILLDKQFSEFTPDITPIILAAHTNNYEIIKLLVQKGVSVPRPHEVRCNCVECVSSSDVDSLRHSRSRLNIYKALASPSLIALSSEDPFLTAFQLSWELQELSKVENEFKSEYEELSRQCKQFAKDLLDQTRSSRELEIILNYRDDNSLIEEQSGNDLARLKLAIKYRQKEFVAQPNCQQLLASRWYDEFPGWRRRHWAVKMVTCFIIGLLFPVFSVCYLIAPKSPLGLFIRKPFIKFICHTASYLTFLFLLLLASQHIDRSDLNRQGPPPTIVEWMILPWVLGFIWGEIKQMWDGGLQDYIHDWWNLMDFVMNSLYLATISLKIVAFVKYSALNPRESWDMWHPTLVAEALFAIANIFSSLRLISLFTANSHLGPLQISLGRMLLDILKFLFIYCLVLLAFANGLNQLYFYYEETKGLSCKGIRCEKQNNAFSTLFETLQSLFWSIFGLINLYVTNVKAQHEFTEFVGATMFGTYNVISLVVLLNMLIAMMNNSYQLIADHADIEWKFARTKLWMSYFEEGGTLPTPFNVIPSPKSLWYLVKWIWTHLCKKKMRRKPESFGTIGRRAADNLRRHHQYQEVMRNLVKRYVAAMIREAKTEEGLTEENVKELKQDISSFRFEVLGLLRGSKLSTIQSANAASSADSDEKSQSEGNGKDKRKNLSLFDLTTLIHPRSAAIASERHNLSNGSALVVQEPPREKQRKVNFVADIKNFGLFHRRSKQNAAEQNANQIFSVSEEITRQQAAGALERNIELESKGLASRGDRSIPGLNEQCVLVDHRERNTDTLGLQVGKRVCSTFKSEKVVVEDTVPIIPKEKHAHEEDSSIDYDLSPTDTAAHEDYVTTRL

[12] = target: T6, Mannose-6-phosphate isomerase (Homo sapiens, UniProt P34949); test: phosphomannose isomerase inhibition – biochemical, fluorescence intensity, confirmation (AID 1535)
T6 sequence (P34949 whole entry): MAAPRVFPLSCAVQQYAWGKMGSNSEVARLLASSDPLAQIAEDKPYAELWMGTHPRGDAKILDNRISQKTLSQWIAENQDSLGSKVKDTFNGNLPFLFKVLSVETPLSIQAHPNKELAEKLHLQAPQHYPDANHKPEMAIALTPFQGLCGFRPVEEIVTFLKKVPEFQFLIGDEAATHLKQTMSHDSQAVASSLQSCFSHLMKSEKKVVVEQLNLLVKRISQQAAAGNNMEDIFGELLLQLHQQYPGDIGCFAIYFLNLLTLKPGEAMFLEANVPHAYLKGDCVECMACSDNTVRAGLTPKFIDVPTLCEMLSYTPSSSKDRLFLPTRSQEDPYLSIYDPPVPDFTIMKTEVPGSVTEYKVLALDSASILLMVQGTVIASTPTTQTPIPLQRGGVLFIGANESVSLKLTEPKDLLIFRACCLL

Phosphomannomutase 2 = target: T7, Phosphomannomutase 2 (Homo sapiens, UniProt O15305); test: Counter screen SAR assay for PMM2 inhibitors via a fluorescence intensity assay. [Related pubchem assays (depositor defined):AID1545, AID1574]
T7 sequence (O15305 whole entry): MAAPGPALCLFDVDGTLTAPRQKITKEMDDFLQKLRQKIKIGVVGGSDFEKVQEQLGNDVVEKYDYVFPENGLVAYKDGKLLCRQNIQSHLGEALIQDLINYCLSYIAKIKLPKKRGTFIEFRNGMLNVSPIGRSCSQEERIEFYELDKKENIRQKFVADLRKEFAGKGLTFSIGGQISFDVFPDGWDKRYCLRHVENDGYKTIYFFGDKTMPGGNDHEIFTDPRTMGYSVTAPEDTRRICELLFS

Sequence of Peroxisome proliferator-activated receptor gamma/Nuclear receptor coactivator 3 (P37231 whole entry): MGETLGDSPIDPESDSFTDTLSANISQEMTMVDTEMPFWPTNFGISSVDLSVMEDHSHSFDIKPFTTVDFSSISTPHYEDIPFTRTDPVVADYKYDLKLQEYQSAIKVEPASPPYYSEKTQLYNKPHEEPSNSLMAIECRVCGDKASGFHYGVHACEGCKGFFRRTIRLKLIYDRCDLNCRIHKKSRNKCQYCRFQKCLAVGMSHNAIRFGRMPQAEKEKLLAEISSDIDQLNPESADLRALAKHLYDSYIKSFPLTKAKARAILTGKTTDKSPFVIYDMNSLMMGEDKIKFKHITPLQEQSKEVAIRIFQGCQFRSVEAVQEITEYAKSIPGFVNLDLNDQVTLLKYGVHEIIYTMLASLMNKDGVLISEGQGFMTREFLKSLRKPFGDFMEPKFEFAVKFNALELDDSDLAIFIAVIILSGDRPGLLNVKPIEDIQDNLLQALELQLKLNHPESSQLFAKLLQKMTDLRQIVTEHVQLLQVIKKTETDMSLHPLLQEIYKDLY
Sequence of Peroxisome proliferator-activated receptor gamma/Nuclear receptor coactivator 3 (Q9Y6Q9 whole entry, further chain): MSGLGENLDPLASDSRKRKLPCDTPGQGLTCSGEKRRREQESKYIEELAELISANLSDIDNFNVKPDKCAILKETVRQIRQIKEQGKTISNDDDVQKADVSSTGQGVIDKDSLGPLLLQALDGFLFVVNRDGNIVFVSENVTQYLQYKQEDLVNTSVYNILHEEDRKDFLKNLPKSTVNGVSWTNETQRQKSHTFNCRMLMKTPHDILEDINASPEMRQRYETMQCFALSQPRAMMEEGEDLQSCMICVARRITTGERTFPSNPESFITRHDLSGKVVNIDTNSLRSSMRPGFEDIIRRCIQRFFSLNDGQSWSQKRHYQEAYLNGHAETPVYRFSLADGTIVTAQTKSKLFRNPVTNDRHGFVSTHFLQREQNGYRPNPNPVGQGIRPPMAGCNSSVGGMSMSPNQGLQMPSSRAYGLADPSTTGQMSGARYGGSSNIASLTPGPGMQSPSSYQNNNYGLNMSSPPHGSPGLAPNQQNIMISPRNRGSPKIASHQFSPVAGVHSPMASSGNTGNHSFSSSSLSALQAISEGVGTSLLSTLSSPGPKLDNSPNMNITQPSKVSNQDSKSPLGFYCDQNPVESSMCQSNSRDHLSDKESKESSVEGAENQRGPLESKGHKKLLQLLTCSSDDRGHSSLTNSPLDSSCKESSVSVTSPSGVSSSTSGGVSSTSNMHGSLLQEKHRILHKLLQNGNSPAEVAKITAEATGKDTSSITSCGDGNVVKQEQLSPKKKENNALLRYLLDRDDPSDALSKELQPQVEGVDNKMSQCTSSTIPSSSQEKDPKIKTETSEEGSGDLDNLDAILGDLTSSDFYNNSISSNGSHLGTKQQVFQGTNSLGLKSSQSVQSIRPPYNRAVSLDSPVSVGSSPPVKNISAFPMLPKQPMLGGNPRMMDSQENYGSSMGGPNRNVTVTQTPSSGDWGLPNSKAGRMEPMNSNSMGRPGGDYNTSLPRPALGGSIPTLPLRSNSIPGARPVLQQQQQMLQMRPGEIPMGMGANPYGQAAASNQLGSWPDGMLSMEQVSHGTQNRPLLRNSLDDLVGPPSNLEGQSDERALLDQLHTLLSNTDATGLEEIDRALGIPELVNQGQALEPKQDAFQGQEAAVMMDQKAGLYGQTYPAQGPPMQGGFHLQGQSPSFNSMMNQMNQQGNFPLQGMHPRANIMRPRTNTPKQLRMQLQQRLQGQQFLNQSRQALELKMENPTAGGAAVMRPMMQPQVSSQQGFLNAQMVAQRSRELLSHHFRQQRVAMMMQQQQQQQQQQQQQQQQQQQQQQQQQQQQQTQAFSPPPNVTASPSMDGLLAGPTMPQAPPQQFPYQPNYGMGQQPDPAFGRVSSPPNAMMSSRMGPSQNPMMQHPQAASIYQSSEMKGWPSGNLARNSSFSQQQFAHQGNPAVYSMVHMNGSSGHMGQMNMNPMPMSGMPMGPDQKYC
Sequence of Peroxisome proliferator-activated receptor gamma/Nuclear receptor coactivator 2 (P37231 whole entry): as the sequence (P37231 whole entry) above
Sequence of Peroxisome proliferator-activated receptor gamma/Nuclear receptor coactivator 2 (Q15596 whole entry, further chain): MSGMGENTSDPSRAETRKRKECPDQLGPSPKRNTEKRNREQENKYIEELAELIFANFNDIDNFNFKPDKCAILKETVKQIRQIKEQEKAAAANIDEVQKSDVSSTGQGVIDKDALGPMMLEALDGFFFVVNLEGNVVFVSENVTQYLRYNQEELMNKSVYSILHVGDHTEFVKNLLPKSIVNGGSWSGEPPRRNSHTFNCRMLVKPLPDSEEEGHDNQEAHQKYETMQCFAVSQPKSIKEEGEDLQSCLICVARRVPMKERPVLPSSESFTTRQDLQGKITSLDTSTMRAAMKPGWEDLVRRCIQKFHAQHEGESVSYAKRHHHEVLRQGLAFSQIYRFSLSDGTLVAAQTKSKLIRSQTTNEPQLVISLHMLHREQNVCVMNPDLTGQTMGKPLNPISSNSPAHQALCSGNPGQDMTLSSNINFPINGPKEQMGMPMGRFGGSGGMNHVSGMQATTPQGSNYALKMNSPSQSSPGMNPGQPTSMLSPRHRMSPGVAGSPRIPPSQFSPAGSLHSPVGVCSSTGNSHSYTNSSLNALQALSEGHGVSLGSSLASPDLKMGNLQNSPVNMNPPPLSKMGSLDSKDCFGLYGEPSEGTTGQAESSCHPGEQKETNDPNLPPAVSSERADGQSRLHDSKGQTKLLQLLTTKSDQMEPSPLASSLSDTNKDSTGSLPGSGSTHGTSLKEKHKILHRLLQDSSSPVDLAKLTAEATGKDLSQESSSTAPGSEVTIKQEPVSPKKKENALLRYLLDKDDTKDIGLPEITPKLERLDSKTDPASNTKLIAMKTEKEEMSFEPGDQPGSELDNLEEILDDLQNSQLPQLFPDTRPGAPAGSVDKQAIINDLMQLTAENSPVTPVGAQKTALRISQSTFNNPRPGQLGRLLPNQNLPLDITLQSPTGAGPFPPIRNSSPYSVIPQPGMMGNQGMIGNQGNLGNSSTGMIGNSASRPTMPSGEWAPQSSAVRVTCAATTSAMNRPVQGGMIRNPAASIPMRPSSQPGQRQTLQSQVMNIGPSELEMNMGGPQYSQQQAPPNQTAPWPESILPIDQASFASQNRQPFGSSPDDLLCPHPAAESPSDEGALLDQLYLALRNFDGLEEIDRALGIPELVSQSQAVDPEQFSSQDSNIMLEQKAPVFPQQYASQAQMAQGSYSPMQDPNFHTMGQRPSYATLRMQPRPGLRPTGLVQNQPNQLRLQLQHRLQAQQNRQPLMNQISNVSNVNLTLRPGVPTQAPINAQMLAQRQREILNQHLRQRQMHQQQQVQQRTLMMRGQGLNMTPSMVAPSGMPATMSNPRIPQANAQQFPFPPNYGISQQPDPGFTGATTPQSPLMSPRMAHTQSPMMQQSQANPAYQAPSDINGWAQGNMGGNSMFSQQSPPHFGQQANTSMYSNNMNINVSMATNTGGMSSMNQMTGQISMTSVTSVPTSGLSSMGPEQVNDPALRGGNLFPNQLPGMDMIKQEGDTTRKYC
Sequence of ATP-dependent molecular chaperone HSP82 (C4YTQ8 whole entry): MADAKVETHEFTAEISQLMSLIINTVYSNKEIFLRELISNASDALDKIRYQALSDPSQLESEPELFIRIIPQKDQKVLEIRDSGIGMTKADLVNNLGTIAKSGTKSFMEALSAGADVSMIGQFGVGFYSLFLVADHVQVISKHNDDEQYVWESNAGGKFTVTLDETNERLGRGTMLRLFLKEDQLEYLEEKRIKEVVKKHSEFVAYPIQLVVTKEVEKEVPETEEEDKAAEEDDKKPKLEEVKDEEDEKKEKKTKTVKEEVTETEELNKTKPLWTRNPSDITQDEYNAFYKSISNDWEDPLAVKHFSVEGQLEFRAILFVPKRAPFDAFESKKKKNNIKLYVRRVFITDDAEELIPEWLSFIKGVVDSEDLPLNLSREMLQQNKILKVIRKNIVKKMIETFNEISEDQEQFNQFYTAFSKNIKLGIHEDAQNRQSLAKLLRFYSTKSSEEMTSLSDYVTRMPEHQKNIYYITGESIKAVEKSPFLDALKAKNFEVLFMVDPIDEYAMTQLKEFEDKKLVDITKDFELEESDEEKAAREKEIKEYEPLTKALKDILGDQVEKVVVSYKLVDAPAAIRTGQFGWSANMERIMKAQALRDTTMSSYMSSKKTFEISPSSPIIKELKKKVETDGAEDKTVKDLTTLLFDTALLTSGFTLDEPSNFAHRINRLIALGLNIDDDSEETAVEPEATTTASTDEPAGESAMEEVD

| SMILES | EC50 [5] | EC50 [6] | EC50 [7] | IC50 (Bcl-2-related protein A1) | IC50 [9] | IC50 [10] | also measured |
| --- | --- | --- | --- | --- | --- | --- | --- |
| O=[N+]([O-])c1ccc(O)c(P(=O)(c2ccccc2)c2ccccc2)c1 | – | – | – | – | – | – | EC50 [1]: > 150 µM (inactive); EC50 [2]: 0.698 µM (active); EC50 [3]: > 180 µM (inactive); EC50 [4]: > 150 µM (inactive) |
| CC(C)OC(=O)CNc1nnc(S)nc1O | 2.28 µM (active) | 21.7 µM (not active) | 2.47 µM (active) | – | – | – | – |
| CCCC(C(=O)NC(C)(C)C)N(C(=O)c1snc(C(N)=O)c1N)c1ccc2c(c1)OCCO2 (stereo not given) | – | – | – | > 20 µM (inactive) | 8.3 µM (active) | 10.2 µM (active) | EC50 [8]: 1.58 µM (active) |
| NC(=O)CSc1ncnc2c1oc1ccccc12 | 27.6 µM (inactive) | > 79.4 µM (not active) | > 26.5 µM (not active) | – | – | – | – |
| CCSc1nnc(-c2ccccc2SC)o1 | > 79.4 µM (inactive) | > 79.4 µM (not active) | 237 µM (not active) | – | – | – | – |
| Fc1ccc(-c2nnsc2Sc2ccccn2)cc1 | 8.31 µM (active) | 16.1 µM (not active) | 11.8 µM (not active) | – | – | – | – |
| O=C(NCC1CCN(Cc2cccc(Cl)c2)CC1)C1CCCN(c2ncnc3c2nc2n3CCCCC2)C1 (stereo not given) | – | – | – | > 20 µM (inactive) | 3.87 µM (active) | 1.89 µM (active) | – |
| CN(C)CCCN(C(=O)c1ccc(S(=O)(=O)N(C)Cc2ccccc2)cc1)c1nc2cc3c(cc2s1)OCO3 | – | – | – | > 20 µM (inactive) | 11.5 µM (active) | 5.54 µM (active) | AC50 (INS1): > 120 µM (inactive); EC50 [11]: 9.44 µM (active) |
| Cc1ccncc1/N=c1\ssnc1Cl | – | – | – | – | – | – | IC50 [12]: 34 µM (active); IC50 (Phosphomannomutase 2): > 100 µM (inactive) |
